SMILES strings stand for the structures. Where a name gives a salt, the structure may show the parent alone. Some results are limits rather than exact numbers.

One assay can be described thus: Antimicrobial activity assay: whole-cell MIC by broth microdilution (NCCLS M7-A6). Type of assay: cell-based.
Conditions: not given
As for the experimental part: Whole-cell antimicrobial activity was determined by broth microdilution using the National Committee for Clinical Laboratory Standards (NCCLS) recommended procedure, Document M7-A6, “Methods for Dilution Susceptibility Tests for Bacteria that Grow Aerobically”. The compounds were tested in serial two-fold dilutions ranging from 0.016 to 16 mcg/mL. Compounds were evaluated against a panel of Gram-positive organisms, including Staphylococcus aureus WCUH29, Streptococcus pneumoniae 1629, Streptococcus pyogenes CN 10, and Enterococcus faecalis 2. In addition, compounds were evaluated against a panel of Gram-negative strains including Haemophilus influenzae NEMC1, E. coli 7623, and Moraxella catarrhalis Ravasio. The minimum inhibitory concentration (MIC) was determined as the lowest concentration of compound that inhibited visible growth. A mirror reader was used to assist in determining the MIC endpoint.
Compounds of the present invention have MIC's ≦20 μg/ml versus all the organisms named above.
(Broth dilution looks for growth in wells or tubes with falling amounts of substance.)
The compound `COc1ccc2ncc(F)c(CCN3CCC(NCc4ccc5nsnc5c4)CC3)c2c1.Cl.Cl` [Example 79, N-(2,1,3-benzothiadiazol-5-ylmethyl)-1-{2-[3-fluoro-6-(methoxy)-4-quinolinyl]ethyl}-4-piperidinamine dihydrochloride] registered an MIC not above 2 µg/mL.
The compound `COc1ccc2ncc(F)c(CCN3CC[C@H](NCc4ccc5c(n4)NC(=O)CO5)[C@H](O)C3)c2n1.Cl.Cl` [Example 68, 6-{[((3R,4S)-1-{2-[3-fluoro-6-(methoxy)-1,5-naphthyridin-4-yl]ethyl}-3-hydroxy-4-piperidinyl)amino]methyl}-2H-pyrido[3,2-b][1,4]oxazin-3(4H)-one dihydrochloride] had an MIC not above 2 µg/mL.
On the same count and under the same terms, under `COc1ccc2ncc(F)c(CCN3CC[C@@H](NCc4ccc5c(n4)NC(=O)CS5)[C@@H](O)C3)c2n1.Cl.Cl` (single isomer, unassigned; enantiomer 2) [Example 70] stands not above 2 µg/mL.

Staying with this assay, now noted: versus all the organisms named above (S. aureus WCUH29, S. pneumoniae 1629, S. pyogenes CN 10, E. faecalis 2, H. influenzae NEMC1, E. coli 7623, M. catarrhalis Ravasio); read-out: MIC.
Consider `COc1cc(F)c2ncc(F)c(CCN3CC[C@H](NCc4ccc5c(n4)NC(=O)CO5)[C@H](O)C3)c2c1.Cl.Cl` [Example 75, 6-{[((3R,4S)-1-{2-[3,8-difluoro-6-(methoxy)-4-quinolinyl]ethyl}-3-hydroxy-4-piperidinyl)amino]methyl}-2H-pyrido[3,2-b][1,4]oxazin-3(4H)-one dihydrochloride], for which the MIC is not above 2 µg/mL.
For `COc1ccc2ncc(F)c(CCN3CCC(C)(NCc4cc5c(cn4)OCCO5)CC3)c2n1.Cl.Cl` [Example 140, N-(2,3-dihydro[1,4]dioxino[2,3-c]pyridin-7-ylmethyl)-1-{2-[3-fluoro-6-(methoxy)-1,5-naphthyridin-4-yl]ethyl}-4-methyl-4-piperidinamine dihydrochloride], the MIC was not above 2 µg/mL.
With `COc1cc(F)c2ncc(F)c(CCN3CCC(NCc4cc5c(cn4)OCCO5)CC3)c2c1.Cl.Cl` [Example 47, 1-{2-[3,8-difluoro-6-(methoxy)-4-quinolinyl]ethyl}-N-(2,3-dihydro[1,4]dioxino[2,3-c]pyridin-7-ylmethyl)-4-piperidinamine dihydrochloride], the MIC was not above 2 µg/mL.
In the case of `COc1ccc2ncc(F)c(CCN3CC[C@H](NCc4cc5c(cn4)OCCO5)[C@H](O)C3)c2n1.Cl.Cl` (single isomer, unassigned; enantiomer 1) [Example 66], the MIC was not above 2 µg/mL.
Same read-out and setting: the value for `COc1ccc2ncc(Cl)c(CCN3CC[C@H](NCc4cc5c(cn4)OCCO5)[C@H](O)C3)c2n1.Cl.Cl` (single isomer, unassigned; enantiomer 1) [Example 29, (cis)-1-[2-(3-Chloro-6-methoxy-[1,5]naphthyridin-4-yl)-ethyl]-4-[(2,3-dihydro-[1,4]dioxino[2,3-c]pyridin-7-ylmethyl)-amino]-piperidin-3-ol Dihydrochloride Enantiomer 1] was not above 2 µg/mL.
Turning to `COc1cc(F)c2ncc(Cl)c(CCN3CCC(NCc4ccc5c(n4)NC(=O)CS5)CC3)c2c1` [Example 160, 6-{[(1-{2-[3-chloro-8-fluoro-6-(methoxy)-4-quinolinyl]ethyl}-4-piperidinyl)amino]methyl}-2H-pyrido[3,2-b][1,4]thiazin-3(4H)-one], the MIC was not above 2 µg/mL.
Same read-out and setting: the value for `COc1ccc2ncc(F)c(CCN3CCC(NCc4ccc5c(c4)CCO5)CC3)c2n1.Cl.Cl` [Example 178, N-(2,3-dihydro-1-benzofuran-5-ylmethyl)-1-{2-[3-fluoro-6-(methoxy)-1,5-naphthyridin-4-yl]ethyl}-4-piperidinamine dihydrochloride] was not above 2 µg/mL.
On to `COc1ccc2ncc(F)c(CCN3CCC(NCC4=CC=C5CCCN=C5N4)CC3)c2c1.Cl.Cl` [Example 77, 1-{2-[3-fluoro-6-(methoxy)-4-quinolinyl]ethyl}-N-(1,5,6,7-tetrahydro-1,8-naphthyridin-2-ylmethyl)-4-piperidinamine dihydrochloride], for which the MIC was not above 2 µg/mL.
In the case of `Cl.Cl.Fc1ccc2ncc(Cl)c(CCN3CCC(NCc4cc5c(cn4)OCCO5)CC3)c2c1` [Example 26, {1-[2-(3-Chloro-6-fluoro-quinolin-4-yl)-ethyl]-piperidin-4-yl}(2,3-dihydro[1,4]dioxino[2,3-c]pyridin-7-ylmethyl)-amine Dihydrochloride], the MIC was not above 2 µg/mL.
Consider `COc1ccc2ncc(F)c(CCN3CCC(NCc4cc5c(cn4)OCS5)CC3)c2n1.Cl.Cl` [Example 61, 1-{2-[3-Fluoro-6-(methoxy)-1,5-naphthyridin-4-yl]ethyl}-N-([1,3]oxathiolo[5,4-c]pyridin-6-ylmethyl)-4-piperidinamine dihydrochloride], for which the MIC was not above 2 µg/mL.
The same measure, in the same setting: the value for `COc1ccc2ncc(F)c(CCN3CCC(C)(NCc4ccc5c(n4)NC(=O)CS5)CC3)c2n1.Cl.Cl` [Example 139, 6-{[(1-{2-[3-fluoro-6-(methoxy)-1,5-naphthyridin-4-yl]ethyl}-4-methyl-4-piperidinyl)amino]methyl}-2H-pyrido[3,2-b][1,4]thiazin-3(4H)-one dihydrochloride] was not above 2 µg/mL; that for `COc1ccc2ncc(Cl)c(CCN3CC[C@@H](NCc4cc5c(cn4)OCCO5)[C@H](O)C3)c2n1` (single isomer, unassigned; enantiomer 1) [Example 154, trans-1-{2-[3-chloro-6-(methoxy)-1,5-naphthyridin-4-yl]ethyl}-4-[(2,3-dihydro[1,4]dioxino[2,3-c]pyridin-7-ylmethyl)amino]-3-piperidinol Enantiomer 1] was not above 2 µg/mL.
`COc1cc(F)c2ncc(F)c(CCN3CC[C@H](NCc4cnc5c(c4)NC(=O)CS5)[C@H](O)C3)c2c1.Cl.Cl` (single isomer, unassigned; enantiomer 1) [Example 72]: the MIC is not above 2 µg/mL.
Consider `COc1ccc2ncc(F)c(CCN3CCC(NC(=O)c4nc5c(cc4F)SCC(=O)N5)CC3)c2n1.Cl.Cl` [Example 62, 7-Fluoro-N-(1-{2-[3-fluoro-6-(methoxy)-1,5-naphthyridin-4-yl]ethyl}-4-piperidinyl)-3-oxo-3,4-dihydro-2H-pyrido[3,2-b][1,4]thiazine-6-carboxamide dihydrochloride], for which the MIC was not above 2 µg/mL.
As to `COc1ccc2ncc(F)c(CCN3CCC(NCc4ccc5c(n4)NC(=O)CO5)CC3)c2n1.Cl.Cl` [Example 55, 6-{[(1-{2-[3-fluoro-6-(methoxy)-1,5-naphthyridin-4-yl]ethyl}-4-piperidinyl)amino]methyl}-2H-pyrido[3,2-b][1,4]oxazin-3(4H)-one dihydrochloride], the MIC was not above 2 µg/mL.
The same measure, in the same setting: the value for `COc1ccc2ncc(F)c(CCN3CCC(NCc4cc5c(cn4)OCCS5)CC3)c2c1.Cl.Cl` [Example 86, N-(2,3-dihydro[1,4]oxathiino[2,3-c]pyridin-7-ylmethyl)-1-{2-[3-fluoro-6-(methoxy)-4-quinolinyl]ethyl}-4-piperidinamine dihydrochloride] was not above 2 µg/mL.
Consider `Cl.Cl.Clc1cnc2ccc3c(c2c1CCN1CCC(NCc2cc4c(cn2)OCCO4)CC1)OCCO3` [Example 52, {1-[2-(9-Chloro-2,3-dihydro-[1,4]dioxino[2,3-f]quinolin-10-yl)-ethyl]-piperidin-4-yl}-(2,3-dihydro-[1,4]dioxino[2,3-c]pyridin-7-ylmethyl)-amine dihydrochloride], for which the MIC was not above 2 µg/mL.
Turning to `Cl.Cl.O=C1CSc2ccc(CNC3CCN(CCc4c(Cl)cnc5ccc(Cl)cc45)CC3)nc2N1` [Example 27, 6-({1-[2-(3,6-Dichloro-quinolin-4-yl)-ethyl]-piperidin-4-ylamino}-methyl)-4H-pyrido[3,2-b][1,4]thiazin-3-one Dihydrochloride], the MIC was not above 2 µg/mL.
`COc1ccc2ncc(Cl)c(CCN3CC[C@@H](NCc4ccc5c(n4)NC(=O)CS5)[C@H](O)C3)c2c1.Cl.Cl.Cl` (single isomer, unassigned; enantiomer 2) [Example 17, 6-({(trans)-1-[2-(3-Chloro-6-methoxyquinolin-4-yl)ethyl]3-hydroxypiperidin-4-ylamino}methyl)-4H-pyrido[3,2-b][1,4]thiazin-3-one Trihydrochloride enantiomer 2]: the MIC is not above 2 µg/mL.
The same measure, in the same setting: the value for `COc1ccc2ncc(Cl)c(CCN3CCC(NCc4cc5c(cn4)OCCO5)(C(N)=O)CC3)c2n1.Cl.Cl` [Example 91, 1-{2-[3-chloro-6-(methoxy)-1,5-naphthyridin-4-yl]ethyl}-4-[(2,3-dihydro[1,4]dioxino[2,3-c]pyridin-7-ylmethyl)amino]-4-piperidinecarboxamide dihydrochloride] was not above 2 µg/mL; that for `COc1ccc2ncc(Cl)c(CCN3CC[C@H](NCc4ccc5c(n4)NC(=O)CS5)[C@H](O)C3)c2c1` (single isomer, unassigned; enantiomer 2) [Example 8, 6-({(cis)-1-[2-(3-Chloro-6-methoxy-quinolin-4-yl)-ethyl]-3-hydroxy-piperidin-4-ylamino}-methyl)-4H-pyrido[3,2-b][1,4]thiazin-3-one Dihydrochloride Enantiomer 2] was not above 2 µg/mL; that for `COc1ccc2ncc(F)c(CCN3CCC(NCc4cc5c(cn4)SCCN5)CC3)c2n1.Cl.Cl` [Example 54, N-(2,3-Dihydro-1H-pyrido[3,4-b][1,4]thiazin-7-ylmethyl)-1-{2-[3-fluoro-6-(methoxy)-1,5-naphthyridin-4-yl]ethyl}-4-piperidinamine dihydrochloride] was not above 2 µg/mL.
As to `COc1cc(F)c2ncc(F)c(CCN3CC[C@H](NCc4cc5c(cn4)OCCO5)[C@H](O)C3)c2c1.Cl.Cl.Cl.Cl` (single isomer, unassigned; enantiomer 1) [Example 74], the MIC is not above 2 µg/mL.

Source of the values: patent US20060041123A1, “Antibacterial agents” (priority 2002, published 2006).
